Laboratory results taken from ChEMBL document CHEMBL1201862, “PubChem BioAssay data set” (2004).
“And” between values parts separate entries of the source, which are not always exact repeats. Equal values may be shown once. The source made the active and inactive calls.

Legend:
Cytochrome P450 3A4 [1] = molecular target: T1, Cytochrome P450 3A4 (Homo sapiens, UniProt P08684); conditions: Potency
Protein RecA = molecular target: T2, Protein RecA (Mycobacterium tuberculosis, UniProt P9WHJ3); experiment: Fluorescence Cell-Free Homogeneous Dose Retest to Identify Inhibitors of RecA-Intein Splicing Activity. [Related pubchem assays (depositor defined):AID2097, AID2223, AID489010, AID492950]; format: functional
T2 sequence (P9WHJ3 whole entry): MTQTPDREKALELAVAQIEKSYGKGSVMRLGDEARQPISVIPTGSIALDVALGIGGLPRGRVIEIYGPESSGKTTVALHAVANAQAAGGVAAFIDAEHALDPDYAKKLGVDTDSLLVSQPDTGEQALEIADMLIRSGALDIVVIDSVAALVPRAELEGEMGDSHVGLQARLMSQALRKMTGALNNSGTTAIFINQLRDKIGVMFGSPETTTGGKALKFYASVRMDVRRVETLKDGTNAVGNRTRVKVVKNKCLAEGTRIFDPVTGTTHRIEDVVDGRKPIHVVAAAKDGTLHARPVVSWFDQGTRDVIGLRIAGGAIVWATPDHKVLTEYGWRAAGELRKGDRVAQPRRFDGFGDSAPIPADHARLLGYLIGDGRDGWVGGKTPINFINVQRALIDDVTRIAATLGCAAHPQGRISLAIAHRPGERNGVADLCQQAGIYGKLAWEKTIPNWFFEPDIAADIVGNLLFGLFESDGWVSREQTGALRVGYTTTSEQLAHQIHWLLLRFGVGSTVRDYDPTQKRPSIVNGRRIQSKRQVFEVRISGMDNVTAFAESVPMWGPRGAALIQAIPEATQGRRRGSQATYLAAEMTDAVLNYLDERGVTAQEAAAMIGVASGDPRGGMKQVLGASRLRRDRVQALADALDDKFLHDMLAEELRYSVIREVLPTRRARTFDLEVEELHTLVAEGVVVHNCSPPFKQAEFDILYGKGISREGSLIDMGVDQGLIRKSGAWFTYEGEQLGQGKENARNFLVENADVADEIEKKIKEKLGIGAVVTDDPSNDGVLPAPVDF

[2] = molecular target: T3, Replicative DNA helicase DnaB (Mycobacterium tuberculosis, UniProt P9WMR3); experiment: DnaB intein splicing inhibitors, dose response, biochemical, cell-free fluorescence (AID 449749); format: functional
T3 sequence (P9WMR3 whole entry): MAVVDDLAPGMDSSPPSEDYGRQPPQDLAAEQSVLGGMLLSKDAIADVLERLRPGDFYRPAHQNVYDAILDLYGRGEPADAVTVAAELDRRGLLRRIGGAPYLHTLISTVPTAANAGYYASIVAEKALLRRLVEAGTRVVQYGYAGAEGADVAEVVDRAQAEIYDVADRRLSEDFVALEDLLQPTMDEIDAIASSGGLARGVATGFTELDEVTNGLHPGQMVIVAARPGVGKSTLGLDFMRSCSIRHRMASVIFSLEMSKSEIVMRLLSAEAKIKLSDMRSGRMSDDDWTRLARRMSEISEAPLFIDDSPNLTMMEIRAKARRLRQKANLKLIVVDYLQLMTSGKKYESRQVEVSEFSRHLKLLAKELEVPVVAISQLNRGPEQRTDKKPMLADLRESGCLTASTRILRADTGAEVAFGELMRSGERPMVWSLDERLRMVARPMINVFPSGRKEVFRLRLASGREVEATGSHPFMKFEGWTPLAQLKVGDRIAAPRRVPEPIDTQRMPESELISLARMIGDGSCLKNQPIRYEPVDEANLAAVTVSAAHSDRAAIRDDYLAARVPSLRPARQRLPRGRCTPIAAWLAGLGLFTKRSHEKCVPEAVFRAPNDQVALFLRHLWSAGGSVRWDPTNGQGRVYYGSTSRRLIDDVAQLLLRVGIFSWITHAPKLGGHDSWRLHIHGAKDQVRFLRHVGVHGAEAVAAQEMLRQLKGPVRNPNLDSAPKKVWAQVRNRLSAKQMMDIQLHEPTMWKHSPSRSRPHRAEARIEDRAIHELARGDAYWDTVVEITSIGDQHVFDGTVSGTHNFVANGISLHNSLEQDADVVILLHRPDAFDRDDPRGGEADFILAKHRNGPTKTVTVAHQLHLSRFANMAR

Leucine aminopeptidase = molecular target: T4, Leucine aminopeptidase (Plasmodium falciparum 3D7, UniProt Q8IL11); experiment: P. falciparum M17LAP inhibitors, primary screen, biochemical, fluorogenic H-Leu-NHMec substrate, 1536-well (AID 1619); format: functional
T4 sequence (Q8IL11 whole entry): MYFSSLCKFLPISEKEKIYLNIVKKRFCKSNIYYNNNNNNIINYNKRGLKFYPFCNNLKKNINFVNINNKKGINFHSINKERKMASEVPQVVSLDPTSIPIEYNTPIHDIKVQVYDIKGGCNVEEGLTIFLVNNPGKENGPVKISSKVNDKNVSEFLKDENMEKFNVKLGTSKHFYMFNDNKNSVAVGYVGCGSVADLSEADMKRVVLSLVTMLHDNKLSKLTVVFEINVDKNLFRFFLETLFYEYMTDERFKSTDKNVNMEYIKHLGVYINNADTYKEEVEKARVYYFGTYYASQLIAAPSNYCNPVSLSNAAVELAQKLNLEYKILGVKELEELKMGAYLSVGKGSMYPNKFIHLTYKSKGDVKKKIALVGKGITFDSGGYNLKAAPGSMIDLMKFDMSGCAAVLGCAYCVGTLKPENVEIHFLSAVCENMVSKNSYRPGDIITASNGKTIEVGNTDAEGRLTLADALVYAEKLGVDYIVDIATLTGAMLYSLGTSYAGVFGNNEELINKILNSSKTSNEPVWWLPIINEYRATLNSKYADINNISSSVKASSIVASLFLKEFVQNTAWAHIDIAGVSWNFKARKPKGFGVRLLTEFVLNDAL

[3] = A cytotoxicity screen of small molecule inhibitors of the PhoP region in Salmonella typhi identified in the primary screen. [Related pubchem assays: 1850, 1864, 1985 ]; format: functional
Large T antigen = Large T antigen (Simian virus 40, UniProt P03070); format: functional, Betapolyomavirus macacae;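 note: Confirmatory-stage PubChem screen for compounds that inhibit SV40 T antigen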
[4] = molecular target: FAD-linked sulfhydryl oxidase ALR (Homo sapiens, UniProt P55789); experiment: inhibitors of human ALR sulfhydryl oxidase, dose response, biochemical, H2O2 detection, luminescence, cherry-pick (AID 493248)
[5] = growth suppression of beta-catenin-knockout colon cells, dose response, cell-based, HCT116, human colon tumor (AID 1045); format: functional;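 note: HCT116 colon tumor cells with beta catenin knocked out; cells exposed to compound for 60 hours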
[6] = growth suppression of PTEN-null colon cells, dose response, cell-based, HCT116 PTEN knockout (AID 1047); format: functional;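 note: HCT116 colon tumor cells with PTEN knocked out; cells exposed to compound for 60 hours before readout; potency for loss of cell viability measured by luminescence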
[7] = Luminescence Cell-Based Dose Retest to Confirm Inhibitors of Cancer Stem Cells. [Related pubchem assays (depositor defined):AID2717, AID2721]; format: functional; conditions: Homo sapiens
[8] = molecular target: Neurotensin receptor type 1 (Homo sapiens, UniProt P30989); format: functional;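 note: Image-based confirmatory dose-response assay measuring agonist activity at NTR1; NTR1-expressing U2OS osteosarcoma cells imaged for beta-arrestin GFP spot formation; agonist potency where compounds increase beta-arrestin recruitment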
[9] = molecular target: DNA dC->dU-editing enzyme APOBEC-3G (Homo sapiens, UniProt Q9HC16); experiment: Dose Response confirmation of small molecule APOBEC3G DNA Deaminase Inhibitors via a fluorescence-based single-stranded DNA deaminase assay. [Related pubchem assays (depositor defined):AID493012, AID493028]; format: functional
Cytochrome P450 3A4 [10] = molecular target: T1, Cytochrome P450 3A4
Coagulation factor XII = molecular target: T5, Coagulation factor XII (Homo sapiens, UniProt P00748); format: functional;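 note: activated factor XIIa alpha cleaving a fluorogenic AMC peptide substrate; inhibitor potency from loss of enzyme activity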
T5 sequence (P00748 whole entry): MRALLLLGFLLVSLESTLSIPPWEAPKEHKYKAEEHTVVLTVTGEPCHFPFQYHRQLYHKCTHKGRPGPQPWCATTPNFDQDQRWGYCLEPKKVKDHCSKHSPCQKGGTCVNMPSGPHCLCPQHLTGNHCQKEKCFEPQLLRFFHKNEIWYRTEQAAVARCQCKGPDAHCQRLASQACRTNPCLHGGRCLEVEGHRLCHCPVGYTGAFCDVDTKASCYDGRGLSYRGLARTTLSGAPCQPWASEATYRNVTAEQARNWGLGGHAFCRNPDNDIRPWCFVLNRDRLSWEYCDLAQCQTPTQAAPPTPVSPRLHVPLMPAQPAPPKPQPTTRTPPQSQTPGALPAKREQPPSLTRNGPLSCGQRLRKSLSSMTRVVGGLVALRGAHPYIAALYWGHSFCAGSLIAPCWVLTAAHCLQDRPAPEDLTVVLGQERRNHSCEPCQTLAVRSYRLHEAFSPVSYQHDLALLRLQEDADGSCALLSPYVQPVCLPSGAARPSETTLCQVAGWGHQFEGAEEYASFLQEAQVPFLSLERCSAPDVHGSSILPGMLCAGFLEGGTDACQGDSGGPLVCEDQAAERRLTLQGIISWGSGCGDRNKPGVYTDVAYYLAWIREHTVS

[11] = molecular target: T6, Short transient receptor potential channel 4 (Mus musculus, UniProt Q9QUQ5); experiment: mouse TRPC4 channel activators, dose response, cell-based, HEK293 TRPC4/mu-opioid, Fluo-4 calcium (AID 434937); format: functional
T6 sequence (Q9QUQ5 whole entry): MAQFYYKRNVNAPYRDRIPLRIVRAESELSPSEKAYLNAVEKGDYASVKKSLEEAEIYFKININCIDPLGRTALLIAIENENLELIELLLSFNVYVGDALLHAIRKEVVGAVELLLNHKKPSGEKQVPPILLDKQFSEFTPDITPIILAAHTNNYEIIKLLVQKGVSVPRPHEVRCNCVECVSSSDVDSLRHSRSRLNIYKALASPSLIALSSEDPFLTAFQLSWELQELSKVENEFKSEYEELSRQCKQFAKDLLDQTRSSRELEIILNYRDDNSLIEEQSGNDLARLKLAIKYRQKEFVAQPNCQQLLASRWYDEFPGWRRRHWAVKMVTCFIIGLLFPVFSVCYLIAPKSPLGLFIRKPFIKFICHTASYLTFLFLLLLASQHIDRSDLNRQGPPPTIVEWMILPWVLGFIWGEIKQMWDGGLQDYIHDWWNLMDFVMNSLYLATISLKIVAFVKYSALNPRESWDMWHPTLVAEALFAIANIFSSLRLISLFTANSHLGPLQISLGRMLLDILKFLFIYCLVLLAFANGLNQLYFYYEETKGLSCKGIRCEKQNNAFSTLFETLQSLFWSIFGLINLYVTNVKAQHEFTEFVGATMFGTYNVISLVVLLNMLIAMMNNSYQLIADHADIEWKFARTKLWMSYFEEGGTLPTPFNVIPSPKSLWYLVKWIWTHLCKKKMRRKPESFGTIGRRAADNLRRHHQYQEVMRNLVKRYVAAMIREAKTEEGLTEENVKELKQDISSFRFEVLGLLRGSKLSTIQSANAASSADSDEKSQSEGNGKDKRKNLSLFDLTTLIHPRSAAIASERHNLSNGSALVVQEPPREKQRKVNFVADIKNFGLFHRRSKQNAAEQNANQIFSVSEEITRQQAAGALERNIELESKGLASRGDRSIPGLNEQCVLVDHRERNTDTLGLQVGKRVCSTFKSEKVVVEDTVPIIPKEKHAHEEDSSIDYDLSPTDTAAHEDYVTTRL

INS1 = experiment: beta cell apoptosis inhibitors, cytokine rescue, dose response, luminescence, retest (AID 449756); format: functional, cell-based; conditions: Rattus norvegicus;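 note: cell death triggered by IL-1 beta plus TNF-alpha plus IFN-gamma mixture; protective hits raise ATP signal compared with cytokine alone wells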

T1 sequence (P08684 whole entry): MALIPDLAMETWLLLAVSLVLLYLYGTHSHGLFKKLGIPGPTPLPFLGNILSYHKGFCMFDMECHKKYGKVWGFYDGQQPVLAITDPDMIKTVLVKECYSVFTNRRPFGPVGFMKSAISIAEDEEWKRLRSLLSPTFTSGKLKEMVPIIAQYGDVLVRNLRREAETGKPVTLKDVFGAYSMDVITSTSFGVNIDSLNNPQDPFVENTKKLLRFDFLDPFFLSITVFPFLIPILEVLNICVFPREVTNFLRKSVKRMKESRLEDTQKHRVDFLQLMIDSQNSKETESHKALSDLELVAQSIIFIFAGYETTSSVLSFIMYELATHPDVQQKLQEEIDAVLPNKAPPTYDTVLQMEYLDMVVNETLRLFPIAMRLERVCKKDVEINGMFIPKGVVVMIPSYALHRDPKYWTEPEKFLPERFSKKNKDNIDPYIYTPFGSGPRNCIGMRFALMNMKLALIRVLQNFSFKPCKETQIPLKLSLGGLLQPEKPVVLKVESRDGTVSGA
Sequence of FAD-linked sulfhydryl oxidase ALR (P55789 whole entry): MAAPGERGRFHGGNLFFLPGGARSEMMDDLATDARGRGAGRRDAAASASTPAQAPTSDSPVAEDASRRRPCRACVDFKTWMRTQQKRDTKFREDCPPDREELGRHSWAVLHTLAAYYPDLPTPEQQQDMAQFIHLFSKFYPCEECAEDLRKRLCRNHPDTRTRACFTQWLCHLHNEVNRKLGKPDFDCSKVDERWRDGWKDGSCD
Sequence of DNA dC->dU-editing enzyme APOBEC-3G (Q9HC16 whole entry): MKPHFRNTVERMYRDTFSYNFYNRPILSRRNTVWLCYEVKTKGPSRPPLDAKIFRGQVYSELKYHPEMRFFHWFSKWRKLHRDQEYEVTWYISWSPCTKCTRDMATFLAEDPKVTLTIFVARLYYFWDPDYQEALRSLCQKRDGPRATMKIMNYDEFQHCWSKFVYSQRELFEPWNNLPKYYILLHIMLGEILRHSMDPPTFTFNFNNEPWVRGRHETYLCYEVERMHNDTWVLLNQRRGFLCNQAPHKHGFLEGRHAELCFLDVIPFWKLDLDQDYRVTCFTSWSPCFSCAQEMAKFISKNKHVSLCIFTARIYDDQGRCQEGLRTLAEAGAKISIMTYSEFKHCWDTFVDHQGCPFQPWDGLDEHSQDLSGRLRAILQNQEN
Sequence of Neurotensin receptor type 1 (P30989 whole entry): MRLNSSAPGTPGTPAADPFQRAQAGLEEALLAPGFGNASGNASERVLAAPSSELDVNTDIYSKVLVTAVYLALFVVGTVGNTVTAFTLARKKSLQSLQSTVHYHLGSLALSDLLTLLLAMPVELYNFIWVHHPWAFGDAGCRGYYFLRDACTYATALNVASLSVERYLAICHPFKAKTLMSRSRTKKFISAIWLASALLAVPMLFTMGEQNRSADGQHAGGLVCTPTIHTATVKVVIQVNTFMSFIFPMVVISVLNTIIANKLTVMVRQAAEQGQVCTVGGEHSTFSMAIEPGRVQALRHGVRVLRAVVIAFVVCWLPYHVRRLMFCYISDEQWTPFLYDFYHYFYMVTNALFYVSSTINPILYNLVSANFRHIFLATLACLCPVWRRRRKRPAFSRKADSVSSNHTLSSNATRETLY
Sequence of Large T antigen (P03070 whole entry): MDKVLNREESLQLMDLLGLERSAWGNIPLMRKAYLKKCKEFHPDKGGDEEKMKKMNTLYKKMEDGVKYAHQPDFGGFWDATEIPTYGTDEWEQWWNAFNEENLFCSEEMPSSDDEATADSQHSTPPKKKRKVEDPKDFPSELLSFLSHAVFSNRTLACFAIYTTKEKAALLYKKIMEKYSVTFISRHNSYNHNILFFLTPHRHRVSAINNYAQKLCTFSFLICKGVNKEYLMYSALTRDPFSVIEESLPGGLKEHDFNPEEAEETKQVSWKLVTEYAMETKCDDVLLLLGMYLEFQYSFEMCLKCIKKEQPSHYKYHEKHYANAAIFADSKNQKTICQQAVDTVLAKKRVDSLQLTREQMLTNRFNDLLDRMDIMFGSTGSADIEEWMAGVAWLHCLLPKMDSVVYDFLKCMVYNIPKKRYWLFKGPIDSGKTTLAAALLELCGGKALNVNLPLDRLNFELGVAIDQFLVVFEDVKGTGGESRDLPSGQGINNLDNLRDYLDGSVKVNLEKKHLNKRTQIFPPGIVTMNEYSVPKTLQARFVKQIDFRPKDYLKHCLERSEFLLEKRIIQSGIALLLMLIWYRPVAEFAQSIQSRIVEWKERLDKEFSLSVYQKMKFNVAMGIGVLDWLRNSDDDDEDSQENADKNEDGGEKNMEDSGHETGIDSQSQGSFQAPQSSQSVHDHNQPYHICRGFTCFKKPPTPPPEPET

SMILES: COCCN(CCOC)c1nc(C)nc2c1nc(-c1ccccc1)n2CC1CCN(C)CC1
- AC50 (Cytochrome P450 3A4 [1]): 15.8 µM (inconclusive)

SMILES: COc1ccc(C2Oc3cc(OC)cc(OC)c3CC2O)cc1 (centres undefined)
- AC50 (Cytochrome P450 3A4 [1]): 20 µM (inconclusive)

SMILES: O=C(Cc1cc(O)n[nH]1)N/N=C/c1c(Cl)cccc1Cl
- EC50 (Protein RecA): 6.26 µM (inconclusive) and 1.51 µM (active)
- AC50 [2]: 2.66 µM (active) and 7.7 µM (active)
- IC50 (Leucine aminopeptidase): 49.9 µM (active)

SMILES: Cc1cccc(CN2C3=NCCCN3c3ccccc32)c1
- EC50 [3]: > 50 µM (active)

SMILES: C/C(=N/NC(=O)Cc1c(C)n[nH]c1O)c1ccc(O)cc1
- IC50 (Large T antigen): 31.4 µM (active)
- AC50 [4]: 1.49 µM (active)
- IC50 (Leucine aminopeptidase): 4.09 µM (active)

SMILES: Cc1cc(C)cc(N2C(=O)NC(=O)/C(=C/c3cccn3-c3ccc(Cl)cc3)C2=O)c1
- EC50 [5]: 26.1 µM (active)
- EC50 [6]: 31.6 µM (active)
- AC50 [7]: 1.04 µM (active)
- EC50 [8]: 10.6 µM (active)

SMILES: O=[N+]([O-])c1ccc(Cl)c(/C=N/n2c(S)nnc2-c2ccncc2)c1
- IC50 [9]: 4.79 µM (active)

SMILES: CC(=O)c1cccc(NC(=O)CCC2CCCC2)c1
- AC50 (Cytochrome P450 3A4 [10]): 28.2 µM (inconclusive)
- EC50 [3]: > 50 µM (active)

SMILES: COC(=O)c1ccc(Oc2nc(NC(C)C)nc(SC)n2)cc1
- IC50 (Coagulation factor XII): > 50 µM (inactive)

SMILES: CC(c1cccnc1)N(CCN(C)C)C(=O)Nc1ccc(Cl)c(Cl)c1 (centres undefined)
- EC50 [11]: 1.5 µM (active)
- EC50 [3]: > 50 µM (active)

SMILES: O=C1CC(c2ccccc2O)Oc2ccc(O)cc21 (centres undefined)
- AC50 (Cytochrome P450 3A4 [1]): 25.1 µM (inconclusive)

SMILES: O=C(c1ccc(Cl)cc1)C(CN1CCCCC1)c1ccccc1 (centres undefined)
- AC50 (INS1): 19.4 µM (active)
- EC50 [8]: 14.7 µM (active)

SMILES: CCCCn1c(-c2ccco2)n[nH]c1=S
- AC50 [4]: 33.6 µM (active)
- IC50 [9]: 8.1 µM (active)

SMILES: COC(=O)C(NC(=O)c1ccco1)(Nc1nc(C)cs1)C(F)(F)F (centres undefined)
- IC50 (Coagulation factor XII): > 50 µM (inactive)

SMILES: COc1ccc(/C=N/NC(=O)CCn2cnc3ccccc32)cc1
- IC50 (Coagulation factor XII): > 50 µM (inactive)

SMILES: COc1ccc(NS(=O)(=O)c2cccc(NC(=O)c3ccccn3)c2)cc1
- EC50 [3]: > 50 µM (active)

SMILES: CCCCNc1nc(C)nc2c1nc(-c1ccccc1)n2CCCN(C)C
- AC50 (Cytochrome P450 3A4 [1]): 15.8 µM (inconclusive)

SMILES: Cc1cccc(N2N=C(C(=O)N3CC(=O)Nc4ccccc43)CCC2=O)c1
- IC50 (Coagulation factor XII): > 50 µM (inactive)
